Data set [1] can be described thus: Selectivity index, CC50 for dog MDCK cells to IC50 for influenza A virus H3N2. The format is functional.
Data set [2] can be described thus: Cytotoxicity against dog MDCK cells. The format is cell-based, Canis lupus familiaris.
Another data set concerns Influenza B virus. The data set can be described thus: Antiviral activity against influenza B virus expressed in dog MDCK cells assessed as reduction of virus-induced cytopathic effect. The class given is functional, organism-based. (Damage to the host cells serves as the signal in cytopathic effect assays.)

Each structure is given as a SMILES string. Values after ≈ are worked out from the molar mass of the structure shown.

Take `Cn1ccnc1Sc1cnc(C(C)(C)C)nc1-c1ccccc1O`: the Selectivity index in data set [1] stood at 9.

One may read the CC50 as the concentration at which the toxic effect on the cells reaches its halfway point. A lower CC50 goes with harm at low concentration. In data set [2], `CC(C)(C)c1ncc(Sc2nc[nH]n2)c(-c2cc(Cl)ccc2O)n1` displayed a CC50 of 9580 µg/mL (≈ 26.5 mM).

On to `CC(C)(C)c1nccc(-c2ccccc2O)n1`, for which the CC50 in data set [2] amounted to 16200 µg/mL (≈ 71.2 mM).

For the compound `COc1ccc(O)c(-c2nc(SC)ncc2Sc2nccn2C)c1`, the CC50 in data set [2] came out at 7190 µg/mL (≈ 19.9 mM).

The IC50 is the point on the concentration scale where inhibition reaches its midpoint. For the compound `NC(=O)c1ncn([C@@H]2O[C@H](CO)[C@@H](O)[C@H]2O)n1` [RIBAVIRIN], the IC50 in the data set with Influenza B virus was found to be 4270 µg/mL (≈ 17.5 mM).
